In brackets after ≈: the same amount, converted by molar mass.
Assays:
[1] = Solubility in simulated intestinal fluids (FaSSIF/FeSSIF); conditions: 25 °C, thermodynamic from solid
[2] = 1.0% DMSO, 24-hour incubation at ambient temperature, maximum theoretical 100 μM; for pH 2 solubility: 0.1N HCl, first value of the cell; for pH 7 solubility: 1×PBS buffer (pH 7.4), second value of the cell
[3] = fasted state simulated intestinal fluid (FaSSIF), fassif
[4] = fed state simulated intestinal fluid (FeSSIF), fessif

SMILES	solubility [1, 3] [µg/mL]	solubility [1, 4] [µg/mL]	pH 2 solubility [2] [μM]	pH 7 solubility [2] [μM]
CC(C)(C#Cc1ccc(-c2ccc(Cl)c3c(N(C(=O)OCCC(C(=O)O)C(=O)O)S(C)(=O)=O)nn(CC(F)(F)F)c23)c([C@H](Cc2cc(F)cc(F)c2)NC(=O)Cn2nc(C(F)(F)F)c3c2C(F)(F)[C@@H]2C[C@H]32)n1)S(C)(=O)=O [Compound 126, 2-(2-(((4-chloro-7-(2-((S)-1-(2-((3bS,4aR)-5,5-difluoro-3-(trifluoromethyl)-3b,4,4a,5-tetrahydro-1H-cyclopropa[3,4]cyclopenta[1,2-c]pyrazol-1-yl)acetamido)-2-(3,5-difluorophenyl)ethyl)-6-(3-methyl-3-(methylsulfonyl)but-1-yn-1-yl)pyridin-3-yl)-1-(2,2,2-trifluoroethyl)-1H-indazol-3-yl)(methylsulfonyl)carbamoyl)oxy)ethyl)malonic acid]	21 (≈ 18.4 µM)	218 (≈ 191 µM)	1	5
CC(C)(C#Cc1ccc(-c2ccc(Cl)c3c(N(C(=O)OCCNC(=N)N)S(C)(=O)=O)nn(CC(F)(F)F)c23)c([C@H](Cc2cc(F)cc(F)c2)NC(=O)Cn2nc(C(F)(F)F)c3c2C(F)(F)[C@@H]2C[C@H]32)n1)S(C)(=O)=O [Compound 123, 2-guanidinoethyl (4-chloro-7-(2-((S)-1-(2-((3bS,4aR)-5,5-difluoro-3-(trifluoromethyl)-3b,4,4a,5-tetrahydro-1H-cyclopropa[3,4]cyclopenta[1,2-c]pyrazol-1-yl)acetamido)-2-(3,5-difluorophenyl)ethyl)-6-(3-methyl-3-(methylsulfonyl)but-1-yn-1-yl)pyridin-3-yl)-1-(2,2,2-trifluoroethyl)-1H-indazol-3-yl)(methylsulfonyl)carbamate]	120 (≈ 109 µM)	153 (≈ 139 µM)	78	71
CC(C)(C#Cc1ccc(-c2ccc(Cl)c3c(N(C(=O)N(CCCC(=O)O)CCNC(=O)OCOP(=O)(O)O)S(C)(=O)=O)nn(CC(F)(F)F)c23)c([C@H](Cc2cc(F)cc(F)c2)NC(=O)Cn2nc(C(F)(F)F)c3c2C(F)(F)[C@@H]2C[C@H]32)n1)S(C)(=O)=O [Compound 82]	2680 (≈ 2070 µM)	1800 (≈ 1390 µM)	2	100
CN(C(=O)N(c1nn(CC(F)(F)F)c2c(-c3ccc(C#CC(C)(C)S(C)(=O)=O)nc3[C@H](Cc3cc(F)cc(F)c3)NC(=O)Cn3nc(C(F)(F)F)c4c3C(F)(F)[C@@H]3C[C@H]43)ccc(Cl)c12)S(C)(=O)=O)[C@@H](CCC(=O)O)C(=O)OCOP(=O)(O)O [Compound 87, (S)-4-(3-(4-chloro-7-(2-((S)-1-(2-((3bS,4aR)-5,5-difluoro-3-(trifluoromethyl)-3b,4,4a,5-tetrahydro-1H-cyclopropa[3,4]cyclopenta[1,2-c]pyrazol-1-yl)acetamido)-2-(3,5-difluorophenyl)ethyl)-6-(3-methyl-3-(methylsulfonyl)but-1-yn-1-yl)pyridin-3-yl)-1-(2,2,2-trifluoroethyl)-1H-indazol-3-yl)-1-methyl-3-(methylsulfonyl)ureido)-5-oxo-5-((phosphonooxy)methoxy)pentanoic acid]	> 2480	299 (≈ 236 µM)	1	18
CC(C)(C#Cc1ccc(-c2ccc(Cl)c3c(N(COC(=O)CN)S(C)(=O)=O)nn(CC(F)(F)F)c23)c([C@H](Cc2cc(F)cc(F)c2)NC(=O)Cn2nc(C(F)(F)F)c3c2C(F)(F)[C@@H]2C[C@H]32)n1)S(C)(=O)=O [Compound 29, (N-(4-chloro-7-(2-((S)-1-(2-((3bS,4aR)-5,5-difluoro-3-(trifluoromethyl)-3b,4,4a,5-tetrahydro-1H-cyclopropa[3,4]cyclopenta[1,2-c]pyrazol-1-yl)acetamido)-2-(3,5-difluorophenyl)ethyl)-6-(3-methyl-3-(methylsulfonyl)but-1-yn-1-yl)pyridin-3-yl)-1-(2,2,2-trifluoroethyl)-1H-indazol-3-yl)methylsulfonamido)methyl glycinate]	6 (≈ 5.69 µM)	120 (≈ 114 µM)	54	4
CC(C)(C#Cc1ccc(-c2ccc(Cl)c3c(N(C(=O)N(CCNC(=O)OCOP(=O)(O)O)CCC(=O)O)S(C)(=O)=O)nn(CC(F)(F)F)c23)c([C@H](Cc2cc(F)cc(F)c2)NC(=O)Cn2nc(C(F)(F)F)c3c2C(F)(F)[C@@H]2C[C@H]32)n1)S(C)(=O)=O [Compound 80, 3-(3-(4-chloro-7-(2-((S)-1-(2-((3bS,4aR)-5,5-difluoro-3-(trifluoromethyl)-3b,4,4a,5-tetrahydro-1H-cyclopropa[3,4]cyclopenta[1,2-c]pyrazol-1-yl)acetamido)-2-(3,5-difluorophenyl)ethyl)-6-(3-methyl-3-(methylsulfonyl)but-1-yn-1-yl)pyridin-3-yl)-1-(2,2,2-trifluoroethyl)-1H-indazol-3-yl)-3-(methylsulfonyl)-1-(2-((((phosphonooxy)methoxy)carbonyl)amino)ethyl)ureido)propanoic acid]	7550 (≈ 5900 µM)	1720 (≈ 1350 µM)	6	100

Results, then the molecule that gave them:

solubility [1, 3] [µg/mL]	solubility [1, 4] [µg/mL]	pH 2 solubility [2] [μM]	pH 7 solubility [2] [μM]	SMILES
798 (≈ 677 µM)	819 (≈ 694 µM)	2	21	CC(C)(C#Cc1ccc(-c2ccc(Cl)c3c(N(C(=O)N[C@@H](COP(=O)(O)O)C(=O)O)S(C)(=O)=O)nn(CC(F)(F)F)c23)c([C@H](Cc2cc(F)cc(F)c2)NC(=O)Cn2nc(C(F)(F)F)c3c2C(F)(F)[C@@H]2C[C@H]32)n1)S(C)(=O)=O [Compound 59, N-((4-chloro-7-(2-((S)-1-(2-((3bS,4aR)-5,5-difluoro-3-(trifluoromethyl)-3b,4,4a,5-tetrahydro-1H-cyclopropa[3,4]cyclopenta[1,2-c]pyrazol-1-yl)acetamido)-2-(3,5-difluorophenyl)ethyl)-6-(3-methyl-3-(methylsulfonyl)but-1-yn-1-yl)pyridin-3-yl)-1-(2,2,2-trifluoroethyl)-1H-indazol-3-yl)(methylsulfonyl)carbamoyl)-O-phosphono-L-serine]
7 (≈ 6.21 µM)	162 (≈ 144 µM)	1	16	CC(C)(C#Cc1ccc(-c2ccc(Cl)c3c(N(C(=O)OCCNC(=O)C(=O)O)S(C)(=O)=O)nn(CC(F)(F)F)c23)c([C@H](Cc2cc(F)cc(F)c2)NC(=O)Cn2nc(C(F)(F)F)c3c2C(F)(F)[C@@H]2C[C@H]32)n1)S(C)(=O)=O [Compound 122, 2-((2-(((4-chloro-7-(2-((S)-1-(2-((3bS,4aR)-5,5-difluoro-3-(trifluoromethyl)-3b,4,4a,5-tetrahydro-1H-cyclopropa[3,4]cyclopenta[1,2-c]pyrazol-1-yl)acetamido)-2-(3,5-difluorophenyl)ethyl)-6-(3-methyl-3-(methylsulfonyl)but-1-yn-1-yl)pyridin-3-yl)-1-(2,2,2-trifluoroethyl)-1H-indazol-3-yl)(methylsulfonyl)carbamoyl)oxy)ethyl)amino)-2-oxoacetic acid]
425 (≈ 377 µM)	140 (≈ 124 µM)	1	10	CC(C)(C#Cc1ccc(-c2ccc(Cl)c3c(N(C(=O)N[C@](C)(CO)CC(=O)O)S(C)(=O)=O)nn(CC(F)(F)F)c23)c([C@H](Cc2cc(F)cc(F)c2)NC(=O)Cn2nc(C(F)(F)F)c3c2C(F)(F)[C@@H]2C[C@H]32)n1)S(C)(=O)=O [Compound 66, (S)-3-(3-(4-chloro-7-(2-((S)-1-(2-((3bS,4aR)-5,5-difluoro-3-(trifluoromethyl)-3b,4,4a,5-tetrahydro-1H-cyclopropa[3,4]cyclopenta[1,2-c]pyrazol-1-yl)acetamido)-2-(3,5-difluorophenyl)ethyl)-6-(3-methyl-3-(methylsulfonyl)but-1-yn-1-yl)pyridin-3-yl)-1-(2,2,2-trifluoroethyl)-1H-indazol-3-yl)-3-(methylsulfonyl)ureido)-4-hydroxy-3-methylbutanoic acid]
710 (≈ 682 µM)	497 (≈ 478 µM)	1	92	CC(C)(C#Cc1ccc(-c2ccc(Cl)c3c(N(C(=O)C(=O)O)S(C)(=O)=O)nn(CC(F)(F)F)c23)c([C@H](Cc2cc(F)cc(F)c2)NC(=O)Cn2nc(C(F)(F)F)c3c2C(F)(F)[C@@H]2C[C@H]32)n1)S(C)(=O)=O [Compound 16]
364 (≈ 311 µM)	756 (≈ 645 µM)	1	14	CC(C)(C#Cc1ccc(-c2ccc(Cl)c3c(N(C(=O)N[C@@H](COC(=O)C(=O)O)C(=O)O)S(C)(=O)=O)nn(CC(F)(F)F)c23)c([C@H](Cc2cc(F)cc(F)c2)NC(=O)Cn2nc(C(F)(F)F)c3c2C(F)(F)[C@@H]2C[C@H]32)n1)S(C)(=O)=O [Compound 60, O-(carboxycarbonyl)-N-((4-chloro-7-(2-((S)-1-(2-((3bS,4aR)-5,5-difluoro-3-(trifluoromethyl)-3b,4,4a,5-tetrahydro-1H-cyclopropa[3,4]cyclopenta[1,2-c]pyrazol-1-yl)acetamido)-2-(3,5-difluorophenyl)ethyl)-6-(3-methyl-3-(methylsulfonyl)but-1-yn-1-yl)pyridin-3-yl)-1-(2,2,2-trifluoroethyl)-1H-indazol-3-yl)(methylsulfonyl)carbamoyl)-L-serine]
10 (≈ 9.23 µM)	10 (≈ 9.23 µM)	1	9	CN(CC(=O)O)C(=O)N(c1nn(CC(F)(F)F)c2c(-c3ccc(C#CC(C)(C)S(C)(=O)=O)nc3[C@H](Cc3cc(F)cc(F)c3)NC(=O)Cn3nc(C(F)(F)F)c4c3C(F)(F)[C@@H]3C[C@H]43)ccc(Cl)c12)S(C)(=O)=O [Compound 44, N-((4-chloro-7-(2-((S)-1-(2-((3bS,4aR)-5,5-difluoro-3-(trifluoromethyl)-3b,4,4a,5-tetrahydro-1H-cyclopropa[3,4]cyclopenta[1,2-c]pyrazol-1-yl)acetamido)-2-(3,5-difluorophenyl)ethyl)-6-(3-methyl-3-(methylsulfonyl)but-1-yn-1-yl)pyridin-3-yl)-1-(2,2,2-trifluoroethyl)-1H-indazol-3-yl)(methylsulfonyl)carbamoyl)-N-methylglycine]
